In the NIST ThermoML archive (doi:10.1021/je050175u):
Where “and” joins values, the source holds several entries; their conditions need not be identical. Identical values can stand only once. ± gives the expanded uncertainty stated by the source.

Assay: excess molar enthalpy (molar enthalpy of mixing); xn = mol fraction of the nth substance listed
Details: Liquid, Flow calorimetry

CC(C)CO [2-methyl-1-propanol] + COC(C)=O
Details | excess molar enthalpy
298.15 K, 5000 kPa, x2 = 0.303 | 0.341 ± 0.00359 kcal/mol
298.15 K, 5000 kPa, x2 = 0.352 | 0.368 ± 0.00406 kcal/mol
298.15 K, 5000 kPa, x2 = 0.402 | 0.388 ± 0.00406 kcal/mol
298.15 K, 5000 kPa, x2 = 0.453 | 0.401 ± 0.0043 kcal/mol
298.15 K, 5000 kPa, x2 = 0.504 | 0.405 ± 0.0043 kcal/mol
298.15 K, 5000 kPa, x2 = 0.553 | 0.402 ± 0.0043 kcal/mol
298.15 K, 5000 kPa, x2 = 0.603 | 0.392 ± 0.00406 kcal/mol
298.15 K, 5000 kPa, x2 = 0.654 | 0.374 ± 0.00406 kcal/mol
298.15 K, 5000 kPa, x2 = 0.702 | 0.347 ± 0.00359 kcal/mol
298.15 K, 5000 kPa, x2 = 0.751 | 0.315 ± 0.00335 kcal/mol
298.15 K, 5000 kPa, x2 = 0.801 | 0.271 ± 0.00287 kcal/mol
298.15 K, 5000 kPa, x2 = 0.851 | 0.219 ± 0.00239 kcal/mol
298.15 K, 5000 kPa, x2 = 0.902 | 0.154 ± 0.00182 kcal/mol
298.15 K, 5000 kPa, x2 = 0.951 | 0.0827 ± 0.00112 kcal/mol
298.15 K, 10000 kPa, x2 = 0.049 | 0.0751 ± 0.00172 kcal/mol
298.15 K, 10000 kPa, x2 = 0.099 | 0.146 ± 0.00215 kcal/mol
298.15 K, 10000 kPa, x2 = 0.15 | 0.208 ± 0.00263 kcal/mol
298.15 K, 10000 kPa, x2 = 0.199 | 0.259 ± 0.00311 kcal/mol
298.15 K, 10000 kPa, x2 = 0.249 | 0.303 ± 0.00335 kcal/mol
298.15 K, 10000 kPa, x2 = 0.3 | 0.339 ± 0.00359 kcal/mol
298.15 K, 10000 kPa, x2 = 0.349 | 0.366 ± 0.00406 kcal/mol
298.15 K, 10000 kPa, x2 = 0.401 | 0.388 ± 0.00406 kcal/mol
298.15 K, 10000 kPa, x2 = 0.449 | 0.4 ± 0.0043 kcal/mol
298.15 K, 10000 kPa, x2 = 0.5 | 0.404 ± 0.0043 kcal/mol
298.15 K, 10000 kPa, x2 = 0.55 | 0.402 ± 0.0043 kcal/mol
298.15 K, 10000 kPa, x2 = 0.6 | 0.392 ± 0.0043 kcal/mol
298.15 K, 10000 kPa, x2 = 0.65 | 0.374 ± 0.00406 kcal/mol
298.15 K, 10000 kPa, x2 = 0.699 | 0.349 ± 0.00382 kcal/mol
298.15 K, 10000 kPa, x2 = 0.752 | 0.313 ± 0.00359 kcal/mol
298.15 K, 10000 kPa, x2 = 0.798 | 0.272 ± 0.00311 kcal/mol
298.15 K, 10000 kPa, x2 = 0.849 | 0.218 ± 0.00263 kcal/mol
298.15 K, 10000 kPa, x2 = 0.901 | 0.154 ± 0.00222 kcal/mol
298.15 K, 10000 kPa, x2 = 0.95 | 0.081 ± 0.00182 kcal/mol
308.15 K, 10000 kPa, x2 = 0.047 | 0.0714 ± 0.00177 kcal/mol
308.15 K, 10000 kPa, x2 = 0.098 | 0.148 ± 0.00225 kcal/mol
308.15 K, 10000 kPa, x2 = 0.146 | 0.213 ± 0.00263 kcal/mol
308.15 K, 10000 kPa, x2 = 0.193 | 0.266 ± 0.00311 kcal/mol
308.15 K, 10000 kPa, x2 = 0.243 | 0.314 ± 0.00359 kcal/mol
308.15 K, 10000 kPa, x2 = 0.291 | 0.352 ± 0.00382 kcal/mol
308.15 K, 10000 kPa, x2 = 0.343 | 0.383 ± 0.00406 kcal/mol
308.15 K, 10000 kPa, x2 = 0.39 | 0.404 ± 0.0043 kcal/mol
308.15 K, 10000 kPa, x2 = 0.492 | 0.426 kcal/mol and 0.423 kcal/mol
308.15 K, 10000 kPa, x2 = 0.541 | 0.424 ± 0.00454 kcal/mol
308.15 K, 10000 kPa, x2 = 0.591 | 0.415 ± 0.0043 kcal/mol
308.15 K, 10000 kPa, x2 = 0.641 | 0.398 ± 0.0043 kcal/mol
308.15 K, 10000 kPa, x2 = 0.692 | 0.371 ± 0.00406 kcal/mol
308.15 K, 10000 kPa, x2 = 0.744 | 0.335 ± 0.00359 kcal/mol
308.15 K, 10000 kPa, x2 = 0.794 | 0.291 ± 0.00335 kcal/mol
308.15 K, 10000 kPa, x2 = 0.896 | 0.168 ± 0.00232 kcal/mol
308.15 K, 10000 kPa, x2 = 0.947 | 0.0912 ± 0.00194 kcal/mol

COC(C)=O [methyl ethanoate] + CC(C)O
excess molar enthalpy [kcal/mol]
Details | 5000 kPa | 10000 kPa
298.15 K, x1 = 0.1 | 0.133 ± 0.00191 | 0.132 ± 0.00194
298.15 K, x1 = 0.151 | 0.19 ± 0.00237 | 0.19 ± 0.00239
298.15 K, x1 = 0.199 | 0.235 ± 0.00263 | –
298.15 K, x1 = 0.201 | – | 0.238 ± 0.00287
298.15 K, x1 = 0.249 | 0.276 ± 0.00311 | –
298.15 K, x1 = 0.251 | – | 0.278 ± 0.00311
298.15 K, x1 = 0.299 | 0.308 ± 0.00335 | –
298.15 K, x1 = 0.301 | – | 0.31 ± 0.00335
298.15 K, x1 = 0.349 | 0.334 ± 0.00359 | –
298.15 K, x1 = 0.351 | – | 0.335 ± 0.00359
298.15 K, x1 = 0.4 | – | 0.354 ± 0.00382
298.15 K, x1 = 0.401 | 0.355 ± 0.00382 | –
298.15 K, x1 = 0.45 | 0.367 ± 0.00406 | 0.366 ± 0.00382
298.15 K, x1 = 0.499 | 0.374 ± 0.00406 | –
298.15 K, x1 = 0.501 | – | 0.372 ± 0.00406
298.15 K, x1 = 0.55 | 0.374 ± 0.00406 | 0.371 ± 0.00406
298.15 K, x1 = 0.599 | 0.367 ± 0.00382 | –
298.15 K, x1 = 0.601 | – | 0.363 ± 0.00382
298.15 K, x1 = 0.649 | 0.352 ± 0.00382 | –
298.15 K, x1 = 0.651 | – | 0.348 ± 0.00382
298.15 K, x1 = 0.699 | – | 0.327 ± 0.00359
298.15 K, x1 = 0.7 | 0.331 ± 0.00359 | –
298.15 K, x1 = 0.749 | – | 0.296 ± 0.00335
298.15 K, x1 = 0.75 | 0.3 ± 0.00335 | –
298.15 K, x1 = 0.799 | 0.262 ± 0.00287 | 0.258 ± 0.00287
298.15 K, x1 = 0.851 | 0.211 ± 0.00234 | 0.207 ± 0.00263
298.15 K, x1 = 0.9 | 0.154 ± 0.00177 | 0.15 ± 0.00217
298.15 K, x1 = 0.949 | 0.0855 ± 0.0011 | 0.081 ± 0.00174
308.15 K, x1 = 0.048 | – | 0.0745 ± 0.00158
308.15 K, x1 = 0.097 | – | 0.142 ± 0.00208
308.15 K, x1 = 0.145 | – | 0.199 ± 0.00239
308.15 K, x1 = 0.195 | – | 0.251 ± 0.00287
308.15 K, x1 = 0.243 | – | 0.293 ± 0.00335
308.15 K, x1 = 0.293 | – | 0.329 ± 0.00359
308.15 K, x1 = 0.342 | – | 0.357 ± 0.00382
308.15 K, x1 = 0.392 | – | 0.379 ± 0.00406
308.15 K, x1 = 0.441 | – | 0.393 ± 0.00406
308.15 K, x1 = 0.49 | – | 0.4 ± 0.0043
308.15 K, x1 = 0.541 | – | 0.4 ± 0.0043
308.15 K, x1 = 0.592 | – | 0.392 ± 0.00406
308.15 K, x1 = 0.643 | – | 0.376 ± 0.00406
308.15 K, x1 = 0.693 | – | 0.354 ± 0.00382
308.15 K, x1 = 0.743 | – | 0.324 ± 0.00359
308.15 K, x1 = 0.793 | – | 0.283 ± 0.00311
308.15 K, x1 = 0.897 | – | 0.169 ± 0.00229
308.15 K, x1 = 0.949 | – | 0.0908 ± 0.00196

COC(C)=O [methyl ethanoate] + CCCCCO
excess molar enthalpy [kcal/mol]
Details | 298.15 K | 308.15 K
5000 kPa, x1 = 0.049 | 0.0821 ± 0.00182 | –
5000 kPa, x1 = 0.1 | 0.157 ± 0.00227 | –
5000 kPa, x1 = 0.15 | 0.22 ± 0.00263 | –
5000 kPa, x1 = 0.2 | 0.273 ± 0.00311 | –
5000 kPa, x1 = 0.249 | 0.314 ± 0.00359 | –
5000 kPa, x1 = 0.299 | 0.349 ± 0.00382 | –
5000 kPa, x1 = 0.349 | 0.375 ± 0.00406 | –
5000 kPa, x1 = 0.401 | 0.394 ± 0.0043 | –
5000 kPa, x1 = 0.451 | 0.404 ± 0.0043 | –
5000 kPa, x1 = 0.5 | 0.407 ± 0.0043 | –
5000 kPa, x1 = 0.55 | 0.403 ± 0.0043 | –
5000 kPa, x1 = 0.599 | 0.391 ± 0.0043 | –
5000 kPa, x1 = 0.65 | 0.371 ± 0.00406 | –
5000 kPa, x1 = 0.749 | 0.31 ± 0.00335 | –
5000 kPa, x1 = 0.801 | 0.264 ± 0.00287 | –
5000 kPa, x1 = 0.85 | 0.213 ± 0.00237 | –
5000 kPa, x1 = 0.901 | 0.15 ± 0.00174 | –
5000 kPa, x1 = 0.95 | 0.08 ± 0.00103 | –
10000 kPa, x1 = 0.049 | 0.0827 ± 0.00184 | –
10000 kPa, x1 = 0.051 | – | 0.0858 ± 0.00194
10000 kPa, x1 = 0.099 | 0.158 ± 0.00227 | 0.162 ± 0.00232
10000 kPa, x1 = 0.15 | 0.221 ± 0.00263 | 0.223 ± 0.00263
10000 kPa, x1 = 0.199 | 0.273 ± 0.00311 | 0.281 ± 0.00311
10000 kPa, x1 = 0.248 | 0.315 ± 0.00359 | –
10000 kPa, x1 = 0.251 | – | 0.325 ± 0.00359
10000 kPa, x1 = 0.299 | 0.35 ± 0.00382 | 0.361 ± 0.00382
10000 kPa, x1 = 0.348 | 0.375 ± 0.00406 | –
10000 kPa, x1 = 0.351 | – | 0.388 ± 0.00406
10000 kPa, x1 = 0.4 | 0.394 ± 0.0043 | 0.406 ± 0.0043
10000 kPa, x1 = 0.45 | 0.404 ± 0.0043 | 0.418 ± 0.0043
10000 kPa, x1 = 0.499 | 0.407 ± 0.0043 | 0.419 ± 0.0043
10000 kPa, x1 = 0.55 | 0.403 ± 0.0043 | 0.415 ± 0.0043
10000 kPa, x1 = 0.599 | 0.391 ± 0.00406 | 0.402 ± 0.0043
10000 kPa, x1 = 0.649 | 0.371 ± 0.00406 | 0.382 ± 0.00406
10000 kPa, x1 = 0.701 | – | 0.351 ± 0.00382
10000 kPa, x1 = 0.748 | 0.309 ± 0.00335 | –
10000 kPa, x1 = 0.752 | – | 0.316 ± 0.00359
10000 kPa, x1 = 0.8 | 0.263 ± 0.00311 | 0.272 ± 0.00311
10000 kPa, x1 = 0.85 | 0.21 ± 0.00263 | 0.22 ± 0.00263
10000 kPa, x1 = 0.901 | 0.146 ± 0.00217 | 0.152 ± 0.00225
10000 kPa, x1 = 0.95 | 0.0747 ± 0.00177 | 0.0782 ± 0.00184
